{
  "source": "patent US20250134835A1",
  "about": "“COMPOSITIONS AND METHODS FOR TREATING PATIENTS WITH AMYOTROPHIC LATERAL SCLEROSIS (ALS)” (CuraSen Therapeutics, Inc., priority 2022, published 2025)",
  "key": {"healthy subjects [1]": {"test_system": "healthy subjects", "test": "Visual verbal learning test (VVLT)", "assay_type": "in vivo, human", "settings": "single dose; crossover study", "description": "Subjects are presented 30 words on a screen, one at a time, for 1 second with a 1-second interval between words over a total of 1 minute. This is repeated in 3 trials. After each trial, subjects are asked to recall as many words as they can. After the third trial, there is a delay of 2.5 hours and subjects are then tested once for delayed recall. […] Since this was a crossover study, everyone who completed Part A was dosed with the 3 agents plus placebo."}, "healthy subjects [2]": {"test_system": "healthy subjects", "test": "Cerebral perfusion by ASL MRI after single dose of clenbuterol (Example 3)", "settings": "for cerebral blood flow measured by MRI-ASL: healthy volunteers, single dose (FIG. 2)"}, "healthy volunteers [3]": {"test_system": "healthy volunteers", "test": "Heart rate (triplicate ECG) after Compound 03-5 with or without nadolol", "assay_type": "in vivo, human", "description": "(§1) Healthy volunteers were enrolled into 2 cohorts in a study to undertake within-subject dose titration of Compound 03-5 and/or nadolol in order to explore doses/dose combinations that mitigate peripheral effects of Compound 03-5, e.g. on heart rate, while preserving possible central effects of Compound 03-5 on cerebral perfusion and pupillary light reflex.\n(§2) Eight healthy subjects aged 18-50 years were enrolled into Cohort D1 and received escalating doses of Compound 03-5 (3-12 mg) administered once daily 2 hours follow pre-administration of nadolol (1-40 mg). On all dosing days, study drug(s) were administered orally after an overnight fast of at least 8 hours.\n(§3) In Cohort D2, 8 healthy volunteers aged 55-75 years were admitted on Day −1 for a 5-day confinement period at the research facility. During this confinement, subjects received escalating doses of open label Compound 03-5 (1-10 mg) once-daily from Day 1 through Day 3 2 hours after pre-administration of open-label nadolol (3 mg) one each for the 3 dosing days according to the schematic in FIG. 17. Subjects remained in-residency until all study procedures are completed on Day 4."}, "healthy volunteers [4]": {"test_system": "healthy volunteers", "test": "Blood potassium, glucose and other peripheral effects after Compound 03-5 with or without nadolol", "assay_type": "in vivo, human", "description": "as §1, §2, §3"}, "healthy volunteers [5]": {"test_system": "healthy volunteers", "test": "CANTAB cognition battery, Cohort D2", "assay_type": "in vivo, human", "settings": "Compound 03-5 1, 3 and 10 mg on Days 1, 2, 3 in the presence of 3 mg nadolol", "description": "as §3\nCompound 03-5 dose administration. Compound 03-5 was administered as escalating doses on Day 1 (1 mg), Day 2 (3 mg) and Day 3 (10 mg). CANTAB was conducted twice in all subjects on the day prior to start of dosing (Day −1) to familiarize subjects with the platform, and prior to dosing and approximately 3 hours after Compound 03-5 administration on Days 1, 2, and 3."}, "[6]": {"test_system": "healthy volunteers and patients", "test": "Cerebral blood flow after single dose of Compound 03-5", "assay_type": "in vivo, human", "settings": "single dose of Compound 03-5 in the absence or presence of 3 mg nadolol", "text": "Data are plotted as mean (±SEM) percent change in cerebral blood flow from baseline in brain regions of interest for movement (the precentral gyrus) and mood, anhedonia and cognition (hippocampus, thalamus, amygdala)."}, "patients [7]": {"test_system": "patients", "test": "Cerebral blood flow by brain imaging after single dose (Example 1)", "assay_type": "in vivo, human"}, "healthy subjects [8]": {"test_system": "healthy subjects", "test": "Adaptive tracking test", "assay_type": "in vivo, human", "settings": "single dose 160 μg clenbuterol", "text": "Adaptive tracking measures visuomotor coordination and vigilance. In this test, the subject uses a joystick to move a small dot so that it stays within a continuously moving circle on a computer screen (Boland 1984). During the test, the speed of the circle is adjusted in response to the subject's ability to keep the dot in the circle, ensuring that the test is adapted to the individual subject. […] The improvement shown by subjects is in the same range as that seen with subjects treated with the acetylcholinesterase inhibitor donepezil, which is in clinical use for the treatment of mild to moderate AD (Groeneveld 2016)."}, "[9]": {"test_system": "patients with neurodegenerative disorders", "assay_type": "in vivo, human", "settings": "80 μg clenbuterol and 1 mg nadolol once daily for 14 days vs placebo"}, "[10]": {"test_system": "patients with neurodegenerative disorders", "test": "Facial Expression Recognition Task (FERT), crossover study", "assay_type": "in vivo, human", "settings": "clenbuterol co-administered with low-dose nadolol vs placebo", "text": "The Facial Expression Recognition Task (FERT) assesses the recognition of facial emotions. […] Different intensity levels of each emotion are presented, which increases the ambiguity of the facial expression and the sensitivity of the task."}, "patients [11]": {"test_system": "patients", "test": "Peripheral effects of clenbuterol with or without nadolol (heart rate, potassium, glucose)"}, "[12]": {"settings": "monotherapy with Compound 03-5 (0.3-6 mg)"}, "[13]": {"settings": "80 µg clenbuterol on its own, single dose"}},
  "note": "Entries after “also recorded” stand apart in the source; their conditions may differ.",
  "data": [
    {"smiles": "CC(C)NCC(O)COc1cccc2[nH]ccc12", "note": "(centres unmarked) [pindolol]", "values": [
      {"measurement": "effect on VVLT (number of words recalled correctly)", "setting": "healthy subjects [1]", "value": "detrimental effect"},
      {"measurement": "cerebral blood flow measured by MRI-ASL", "setting": "healthy subjects [2]", "value": "lack of increase in cerebral blood flow"}
    ]},
    {"smiles": "CC(C)(C)NCC(O)COc1cccc2c1CC(O)C(O)C2", "note": "(centres unmarked) [nadolol]", "values": [
      {"measurement": "effect of nadolol on peripheral effects of Compound 03-5 (heart rate, glucose, potassium)", "setting": "healthy volunteers [3]; 3 mg nadolol pre-administered, Cohort D2, Compound 03-5 1-10 mg", "value": "inhibited; also recorded: similarly blocked"},
      {"measurement": "effect of nadolol on peripheral effects of Compound 03-5 (heart rate, glucose, potassium, tachycardia, tremor, palpitations)", "setting": "healthy volunteers [3]; Cohort D1, nadolol 1 mg up to 40 mg, Compound 03-5 3-12 mg", "value": "blocked"},
      {"measurement": "effect of nadolol on heart rate increase and other peripheral effects of Compound 03-5", "setting": "healthy volunteers [3]; pre-administration of 1 mg nadolol, Compound 03-5 up to 6 mg orally", "value": "substantially attenuated"},
      {"measurement": "effect of nadolol on Compound 03-5 induced decrease in blood potassium", "setting": "healthy volunteers [4]; 3 mg nadolol, cohort D2", "value": "inhibited"},
      {"measurement": "effect of nadolol on effects of Compound 03-5 on blood glucose and potassium, tachycardia, tremor and palpitations", "setting": "healthy volunteers [4]; pre-administration of 1 mg nadolol", "value": "Concomitant attenuation"}
    ]},
    {"smiles": "CC(C)(C)NCC(O)c1ccc(O)c(CO)c1", "note": "(centres unmarked) [salbutamol]", "values": [
      {"measurement": "effect on VVLT (number of words recalled correctly)", "setting": "healthy subjects [1]", "value": "improvements in cognition; also recorded: positive effects"}
    ]},
    {"smiles": "CC(C)(C)NC[C@H](O)c1cccc(C#N)n1", "note": "[Compound 03-5, (S)-6-(2-(tert-butylamino)-1-hydroxyethyl)picolinonitrile]", "values": [
      {"measurement": "mean maximum increase in heart rate", "setting": "healthy volunteers [3]; Compound 03-5 with pre-administration of 1 mg nadolol", "value": 7, "unit": "beats per minute"},
      {"measurement": "heart rate change from baseline", "setting": "healthy volunteers [3]; [12]", "value": "dose-dependent increases in heart rate"},
      {"measurement": "blood potassium concentrations", "setting": "healthy volunteers [4]; [12]", "value": "dose-dependent decreases in blood potassium concentrations"},
      {"measurement": "cognition (CANTAB), change from within-day pre-dose assessment", "setting": "healthy volunteers [5]", "value": "improvements in performance in the CANTAB cognition battery"},
      {"measurement": "cerebral blood flow from baseline (precentral gyrus, hippocampus, thalamus, amygdala)", "setting": "[6]", "value": "robust, global increases in cerebral blood flow"}
    ]},
    {"smiles": "CC(C)(C)NCC(O)c1cc(Cl)c(N)c(Cl)c1", "note": "(centres unmarked) [clenbuterol]", "values": [
      {"measurement": "cerebral blood flow (CBF) relative to the baseline", "setting": "patients [7]; single dose clenbuterol 160 μg", "value": "global increases in cerebral blood flow; also recorded: robust global increase in cerebral blood flow; also recorded: robust, global increase in cerebral blood flow"},
      {"measurement": "cerebral blood flow (CBF) relative to the baseline", "setting": "patients [7]; single dose clenbuterol 160 μg and nadolol 5 mg", "value": "global increases in cerebral blood flow; also recorded: robust global increase in cerebral blood flow"},
      {"measurement": "cerebral blood flow from the baseline", "setting": "patients [7]; single dose clenbuterol 30 to 160 μg and/or nadolol 5 mg, tracked 3 days", "value": "robust global increase in cerebral blood flow"},
      {"measurement": "cerebral blood flow (CBF) relative to the baseline", "setting": "patients [7]; single dose clenbuterol ranging from 20 to 160 μg, tracked 3 days", "value": "robust global increase in cerebral blood flow"},
      {"measurement": "performance in adaptive tracking (percent time dot kept within moving circle)", "setting": "healthy subjects [8]", "value": "improved performance in the adaptive tracking task; also recorded: improves cognition; also recorded: performance in adaptive tracking improves"},
      {"measurement": "effect on VVLT (number of words recalled correctly)", "setting": "healthy subjects [1]", "value": "improvements in cognition; also recorded: positive effects"},
      {"measurement": "number of words correctly recalled, immediate verbal recall", "setting": "[9]", "value": "statistically significant increase in the number of words correctly recalled"},
      {"measurement": "accuracy of correctly identifying happy facial expressions (FERT)", "setting": "[10]", "value": "statistically significant increase in the accuracy"},
      {"measurement": "cerebral perfusion", "setting": "healthy subjects [2]; 160 μg clenbuterol, hippocampus, thalamus, amygdala, cortex, precentral gyrus", "value": "robust global increase in cerebral perfusion"},
      {"measurement": "cerebral perfusion as measured by CBF", "setting": "healthy subjects [2]; clenbuterol 40 μg", "value": "minimal increase"},
      {"measurement": "cerebral perfusion as measured by CBF", "setting": "healthy subjects [2]; clenbuterol doses below 30 μg", "value": "do not produce significant cerebral perfusion increases"},
      {"measurement": "cerebral blood flow measured by MRI-ASL", "setting": "healthy subjects [2]", "value": "increases in cerebral blood flow"},
      {"measurement": "glucose in the blood, change from baseline", "setting": "patients [11]; [13]", "value": "increases in glucose in the blood"},
      {"measurement": "potassium in the blood, change from baseline", "setting": "patients [11]; [13]", "value": "decreases in potassium in the blood"},
      {"measurement": "heart rate change from baseline", "setting": "patients [11]; 80 g clenbuterol on its own, single dose", "value": "increases in heart rate"},
      {"measurement": "increases in heart rate", "setting": "patients [11]; over the 4 hours after dosing clenbuterol+nadolol (1 mg)", "value": "4.0-6.8 bpm"}
    ]}
  ]
}
